Reference: patent US20040072753A1, “Peptides for use in the treatment of alzheimer's disease” (priority 2000, published 2004)
Where a SMILES comes first, the peptide text is derived from it.

What was measured:
[1] = biological target: biotinylated Aβ 1-42 (Homo sapiens, UniProt P05067); experiment: Binding of biotinylated Aβ 1-42 to CAβBP or EAβBP coated plates (ELISA, Scatchard); details: biotinylated peptide 200 pM
Procedure: After washing to remove unbound material, an alkaline phosphatase polymer-streptavidin conjugate (Sigma, Dorset, UK) was added and incubated at 37° C. for 2 hours. After washing to remove unbound material, p-nitrophenylphosphate substrate was added and absorbance at 405 nm determined.

[2] = biological target: T1, catalase EC 1.11.1.6 from human erythrocytes (Homo sapiens, UniProt P04040); experiment: Catalase enzyme activity, inhibition by Aβ peptides; assay type: biochemical; details: test peptides 2 μM
T1 construct: catalase EC 1.11.1.6 from human erythrocytes (Sigma, Dorset, UK) was used; purchased Sigma, Dorset, UK; host or cells: human erythrocytes
T1 sequence (P04040 2-527 limits assumed): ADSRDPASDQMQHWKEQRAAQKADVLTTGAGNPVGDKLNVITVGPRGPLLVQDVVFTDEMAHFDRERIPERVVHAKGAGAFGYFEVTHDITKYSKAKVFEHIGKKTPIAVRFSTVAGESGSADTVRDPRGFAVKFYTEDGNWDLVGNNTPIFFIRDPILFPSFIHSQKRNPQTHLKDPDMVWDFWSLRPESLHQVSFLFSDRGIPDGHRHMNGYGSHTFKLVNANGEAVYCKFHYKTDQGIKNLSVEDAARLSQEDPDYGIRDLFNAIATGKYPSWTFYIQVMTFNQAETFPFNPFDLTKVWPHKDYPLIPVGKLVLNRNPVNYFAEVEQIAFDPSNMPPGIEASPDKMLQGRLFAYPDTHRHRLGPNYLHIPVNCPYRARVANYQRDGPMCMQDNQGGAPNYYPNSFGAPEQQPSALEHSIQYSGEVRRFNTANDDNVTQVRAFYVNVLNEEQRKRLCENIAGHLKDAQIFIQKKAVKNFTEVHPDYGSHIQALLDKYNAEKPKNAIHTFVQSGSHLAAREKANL
Procedure: For catalase activity catalase EC 1.11.1.6 from human erythrocytes (Sigma, Dorset, UK) was used for all incubation experiments. Activity of Catalase (5kU I^−1) incubated with test peptides (2 μM) was determined after incubation in 60 mM sodium-potassium phosphate buffer at 37° C. in a total volume of 100 μl. After incubation catalase activity was determined by mixing 50 μl sample with 50 μl substrate (6.5 μmol H2O2 in phosphate buffer) for 60 secs, adding 100 μl of 32.4 mM ammonium molybdate and measurement of absorbance change at 405 nm. Catalase activity was calculated from a standard curve (0-10OkU I^−1) using purified human catalase of known activity (Milton, Biochem. J. 344: 293-296 (1999)).

[3] = test system: SP2/0-Ag-14 mouse myeloma cells; experiment: Cytotoxicity of Aβ peptides, trypan blue dye exclusion; assay type: cell-based; details: test peptides 20 μM, 24 hours
Procedure: SP2/0-Ag-14 mouse myeloma cells were maintained in RPMI 1640 medium containing 10% fetal calf serum at 37° C. in a 5% CO2 humidified atmosphere. For cytotoxicity experiments 2×1 05 cells were plated in 24 well dishes in 1 ml PBS containing 0.1% BSA and test peptides (20 μM) for 24 hours. Cell viability was determined by trypan blue dye exclusion with at least 100 cells counted per well (Milton, Biochem. J. 344: 293-296 (1999)).

[4] = biological target: biotinylated Aβ 12-28 (Homo sapiens, UniProt P05067); experiment: Binding of biotinylated Aβ 12-28 to CAβBP or EAβBP coated plates (ELISA); details: biotinylated peptide 200 pM
Procedure: Biotinylated Aβ1-42, Aβ12-28 and Aβ 25-35 (from SEQ ID NO. 2) were prepared using a LinKit-Biolink kit (ISL, Paignton, UK). ELISA plates were coated with CAβBP (catalase residues 400409) or EAβBD (ERAB residues 99-108) (1 μg ml^−1) in carbonate buffer and unoccupied sites blocked with 5% (w/v) dried milk. Biotinylated peptides (200 pM) were incubated alone, with control peptides or with unlabelled Aβ peptides in PBS (containing 0.1% BSA and 0.05% Tween-20) at 37° C. for 4 hours. After washing to remove unbound material, an alkaline phosphatase polymer-streptavidin conjugate (Sigma, Dorset, UK) was added and incubated at 37° C. for 2 hours. After washing to remove unbound material, p-nitrophenylphosphate substrate was added and absorbance at 405 nm determined. Affinity constants were determined by incubating catalase or CAβBP coated plates with biotinylated peptides (200 pM) plus Aβ peptides over a range of concentrations (0-100 nM) and detection of bound peptides was carried out by ELISA.

[5] = biological target: T2, cdc2/cyclin B1 (Homo sapiens, UniProt P06493+P14635); experiment: cdc2/cyclin B1 phosphorylation of biotinylated histone H1 substrate peptide; assay type: biochemical
T2 construct: purchased Promega, UK
T2 sequence (P06493 whole entry): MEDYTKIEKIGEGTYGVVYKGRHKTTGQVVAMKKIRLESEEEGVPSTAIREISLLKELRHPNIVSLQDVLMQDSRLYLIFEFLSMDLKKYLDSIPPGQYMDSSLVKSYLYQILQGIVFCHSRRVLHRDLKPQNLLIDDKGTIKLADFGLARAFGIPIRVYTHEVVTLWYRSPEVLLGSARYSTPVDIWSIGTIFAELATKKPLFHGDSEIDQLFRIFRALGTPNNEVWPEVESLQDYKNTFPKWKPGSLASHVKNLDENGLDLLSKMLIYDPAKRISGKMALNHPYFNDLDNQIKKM
T2 sequence (P14635 whole entry): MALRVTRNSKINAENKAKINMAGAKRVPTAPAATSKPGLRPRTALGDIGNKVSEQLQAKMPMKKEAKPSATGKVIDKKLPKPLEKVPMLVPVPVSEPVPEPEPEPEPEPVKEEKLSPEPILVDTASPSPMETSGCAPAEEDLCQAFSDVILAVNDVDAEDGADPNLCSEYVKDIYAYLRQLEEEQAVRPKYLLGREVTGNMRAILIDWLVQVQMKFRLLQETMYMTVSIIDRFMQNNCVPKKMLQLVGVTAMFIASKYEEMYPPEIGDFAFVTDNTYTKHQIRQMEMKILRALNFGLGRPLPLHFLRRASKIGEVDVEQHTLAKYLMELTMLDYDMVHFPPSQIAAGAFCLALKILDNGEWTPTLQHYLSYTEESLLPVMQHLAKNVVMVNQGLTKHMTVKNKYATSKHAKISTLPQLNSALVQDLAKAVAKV
Text: (§1) The membrane was washed four times in 2 M NaCl, followed by four times in 2 M NaCl containing 1% (v/v) H3PO4 and finally twice in deionized H2O to remove unbound material.
Since Aβ binds to both the cdc2 and cyclin B1 components of the active enzyme it is possible that Aβ modulates the activity of the kinase.

[6] = biological target: T3, recombinant p34-cdc2/cyclin B1 (Homo sapiens, UniProt P06493); experiment: Phosphorylation of biotinylated Aβ peptides by recombinant p34-cdc2/cyclin B1 (32P incorporation); assay type: biochemical; details: 25 μM biotinylated peptide, 10 min at 30° C.
T3 construct: purchased Promega, UK
T3 sequence (P06493 whole entry): as the sequence (P06493 whole entry) above
T3 sequence (P14635 whole entry partner): as the sequence (P14635 whole entry) above
Text: as §1

[7] = biological target: recombinant human cyclin B1 (Homo sapiens, UniProt P14635); experiment: Binding of biotinylated Aβ peptides to cyclin B1 coated plates (ELISA); details: biotinylated peptide
Sequence of recombinant human cyclin B1 (P14635 whole entry): as above
Procedure: (§2) After washing to remove unbound material, an alkaline phosphatase polymer-streptavidin conjugate (Sigma, Dorset, UK) was added and incubated at 37° C. for 2 hours.
Cyclins are co-factors for cdc2 which are required for enzyme activity. These proteins also contain substrate recognition sequences which may play a role in the recruitment of substrate molecules to the active cdc2/cyclin complex. The recombinant cdc2/cyclin enzyme complex used in the above phosphorylation experiments contained cyclin B1. […] Binding assays as described above using cyclin B1 coated plates were carried out.

[8] = biological target: recombinant human cdc2 (Homo sapiens, UniProt P06493); experiment: Binding of biotinylated Aβ peptides to recombinant human cdc2 coated plates (ELISA); details: biotinylated peptide 200 pM, 37° C. 4 hours
Sequence of recombinant human cdc2 (P06493 whole entry): as the sequence (P06493 whole entry) above
Procedure: as §2

Sequence of biotinylated Aβ 1-42 (P05067 672-713 limits assumed): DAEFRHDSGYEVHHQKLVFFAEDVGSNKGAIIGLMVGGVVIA

**Q.** With CC(C)C[C@H](NC(=O)[C@H](CC(N)=O)NC(=O)[C@H](Cc1ccc(O)cc1)NC(=O)[C@@H](NC(=O)[C@@H](N)CCCCN)[C@@H](C)O)C(=O)N[C@@H](CCCCN)C(=O)N[C@@H](CCCCN)C(=O)NCC(=O)N[C@@H](CCC(N)=O)C(=O)N[C@H](C(=O)O)[C@@H](C)O [EAβBP] (H-KTYNLKKGQT-OH; N-terminus and C-terminus assumed) as the compound, how does the “binding of biotinylated Aβ 1-42” value [1] read?
**A.** The value was “specifically bound”.

**Q.** And the “block of the inhibition of catalase enzyme activity by Aβ 1-42” value [2]?
**A.** Its value is “no effect”.

**Q.** And the “block of the cytotoxicity of Aβ 1-42” value [3]?
**A.** Its value is “able to block”.

**Q.** And the “block of the cytotoxicity of Aβ fragments containing residues 17-35” value [3]?
**A.** Its value is “able to block”.

**Q.** What about the “binding of biotinylated Aβ 12-28” value [4] of the same compound?
**A.** Its value is “specifically bound”.

**Q.** What does the source list for “Aβ 25-35: functional neurotoxic domain fragment of Aβ (GSNKGAIIGLM)”?
**A.** effect on phosphorylation of the H1 peptide by cdc2/cyclin B1 [5]: increased; phosphorylation by cdc2 (incorporation of 32P from γ32P-ATP) [6]: incorporated; binding to cyclin B1 [7]: bound; binding to human cdc2 [8]: bound
